As a reminder, the IC50 is the concentration at which inhibition is half-maximal.

The values below come from patent US12679848B2, “Plasma kallikrein inhibitors” (Merck Sharp & Dohme LLC, priority 2020, dated 2026).

The target in one assay is human factor XIa (Homo sapiens, UniProt P03951). Briefly: Factor XIa Assay. In kind it is biochemical. The note with it: human factor XIa 0.04 nM, substrate GPR-AFC, 30 min pre-incubation, 25° C., pH 7.4; read-out: FXIa IC50.
Another assay has as its target T1, Human plasma kallikrein (Homo sapiens, UniProt P03952).
T1 construct: yields a heavy chain (371 amino acids) and a light chain (248 amino acids); The active site of plasma kallikrein is contained in the light chain; purchased Enzyme Research Laboratories
The assay can be described thus: Plasma Kallikrein Assay. In kind it is biochemical. The note with it: purified Human plasma kallikrein 0.5 nM, substrate Acetyl-K-P-R-AFC, HEPES pH 7.4; read-out: PKal IC50. The procedure, abridged: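 Purified human plasma kallikrein at 0.5 nM final with substrate Acetyl-K-P-R-AFC at […], in 50 mM HEPES pH 7.4, 150 mM NaCl, 5 mM CaCl2, 0.1% PEG 8000, at rt or 37° C after enzyme-inhibitor equilibration. IC50 from four-parameter logistic fit of fluorescence rate; Ki via Cheng-Prusoff.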

human factor XIa, sequence (P03951 388-625 limits assumed): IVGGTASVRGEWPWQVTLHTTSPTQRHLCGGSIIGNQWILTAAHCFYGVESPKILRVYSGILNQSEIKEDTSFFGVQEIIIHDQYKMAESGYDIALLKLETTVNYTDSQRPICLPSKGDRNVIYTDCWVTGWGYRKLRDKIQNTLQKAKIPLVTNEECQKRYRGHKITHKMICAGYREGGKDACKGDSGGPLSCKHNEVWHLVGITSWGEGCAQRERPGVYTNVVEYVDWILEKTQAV
human factor XIa, sequence (P03951 19-387 partner limits assumed): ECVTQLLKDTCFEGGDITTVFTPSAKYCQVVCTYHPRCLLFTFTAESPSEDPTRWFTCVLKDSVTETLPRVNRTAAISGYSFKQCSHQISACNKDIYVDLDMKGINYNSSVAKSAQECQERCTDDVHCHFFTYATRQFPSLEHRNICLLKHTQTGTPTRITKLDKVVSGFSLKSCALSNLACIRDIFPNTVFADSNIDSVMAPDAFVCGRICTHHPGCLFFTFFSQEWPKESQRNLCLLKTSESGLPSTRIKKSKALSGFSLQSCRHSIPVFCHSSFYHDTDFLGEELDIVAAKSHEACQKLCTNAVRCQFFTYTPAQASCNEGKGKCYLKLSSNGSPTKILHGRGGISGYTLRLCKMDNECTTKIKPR
T1 sequence (P03952 391-638 limits assumed): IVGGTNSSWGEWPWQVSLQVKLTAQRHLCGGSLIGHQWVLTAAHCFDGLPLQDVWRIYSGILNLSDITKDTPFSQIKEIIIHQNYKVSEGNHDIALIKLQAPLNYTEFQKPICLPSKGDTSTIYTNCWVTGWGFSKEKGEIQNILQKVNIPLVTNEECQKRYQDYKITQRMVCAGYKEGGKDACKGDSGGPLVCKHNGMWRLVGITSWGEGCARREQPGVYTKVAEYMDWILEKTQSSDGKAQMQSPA
T1 sequence (P03952 20-390 partner limits assumed): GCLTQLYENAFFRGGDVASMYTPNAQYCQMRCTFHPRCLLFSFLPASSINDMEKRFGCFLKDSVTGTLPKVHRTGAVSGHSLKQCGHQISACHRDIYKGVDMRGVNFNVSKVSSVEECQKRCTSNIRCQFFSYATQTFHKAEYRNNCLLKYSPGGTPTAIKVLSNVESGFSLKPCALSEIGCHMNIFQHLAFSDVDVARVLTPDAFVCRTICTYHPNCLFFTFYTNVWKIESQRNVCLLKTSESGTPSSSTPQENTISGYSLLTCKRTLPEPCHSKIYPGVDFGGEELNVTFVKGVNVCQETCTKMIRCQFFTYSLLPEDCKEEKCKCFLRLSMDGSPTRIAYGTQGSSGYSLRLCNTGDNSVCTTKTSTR

Turning to `Cc1ccccc1-n1ncc(C(=O)N2CCC[C@@]3(C2)OC(=O)Nc2ccc(Cl)c(F)c23)c1N` [Example 64, (R)-1'-(5-Amino-1-(o-toly1)-1H-pyrazole-4-carbonyl)-6-chloro-5-fluorospiro[benzo[d][1,3]oxazine-4,3'-piperidin]-2(1H)-one], the IC50 at human factor XIa is 1310 nM; on Human plasma kallikrein, 28.1 nM.

In the case of `Nc1c(C(=O)N2CCC[C@@]3(C2)OC(=O)Nc2ccc(Cl)c(F)c23)cnn1CCN1CCOCC1` [Example 14, (R)-1'-(5-Amino-1-(2-morpholinoethyl)-1H-pyrazole-4-carbonyl)-6-chloro-5-fluorospiro[benzo[d][1,3]oxazine-4,3'-piperidin]-2(1H)-one], the IC50 worked out at 3180 nM on human factor XIa and 42.8 nM on Human plasma kallikrein.

In the case of `Nc1c(C(=O)N2CCC[C@@]3(C2)OC(=O)Nc2ccc(Cl)c(F)c23)cnn1C(C(F)(F)F)C1(F)CC1` (single isomer, unassigned) [Example 115, (R)-1'-(5-Amino-1-((S or R)-2,2,2-trifluoro-1-(1-fluorocyclopropyl)ethyl)-1H-pyrazole-4-carbonyl)-6-chloro-5-fluorospiro[benzo[d][1,3]oxazine-4,3'-piperidin]-2(1H)-one], the IC50 on human factor XIa worked out at 42 nM; at Human plasma kallikrein, 0.6 nM.

Regarding `CC1(C)CN(C(=O)c2cnn(CC(F)(F)F)c2N)C[C@]2(C1)OC(=O)Nc1ccc(Cl)c(F)c12` [Example 2, (R)-1′-(5-Amino-1-(2,2,2-trifluoroethyl)-1H-pyrazole-4-carbonyl)-6-chloro-5-fluoro-5′,5′-dimethylspiro[benzo[d][1,3]oxazine-4,3′-piperidin]-2(1H)-one], the IC50 was determined as 211 nM at human factor XIa and 2.7 nM at Human plasma kallikrein.

For `COCC(C)(n1ncc(C(=O)N2CCC[C@@]3(C2)OC(=O)Nc2ccc(Cl)c(F)c23)c1N)C(F)(F)F` (single isomer, unassigned) [Example 128, (R)-1'-(5-Amino-1-((R or S)-1,1,1-trifluoro-3-methoxy-2-methylpropan-2-y1)-1H-pyrazole-4-carbonyl)-6-chloro-5-fluorospiro[benzo[d][1,3]oxazine-4,3'-piperidin]-2(1H)-one], the figures for the IC50 at human factor XIa and at Human plasma kallikrein were 973 nM and 4.7 nM, respectively.

Consider `CCC(n1ncc(C(=O)N2CC(C)(C)C[C@@]3(C2)OC(=O)Nc2ccc(Cl)c(F)c23)c1N)C(F)(F)F` (single isomer, unassigned) [Example 131, (R)-1'-(5-Amino-1-((S or R)-1,1,1-trifluorobutan-2-y1)-1H-pyrazole-4-carbonyl)-6-chloro-5-fluoro-5',5'-dimethylspiro[benzo[d][1,3]oxazine-4,3'-piperidin]-2(1H)-one], for which the IC50 on human factor XIa was 70 nM; on Human plasma kallikrein, 1.2 nM.

In the case of `Nc1c(C(=O)N2CCC[C@@]3(C2)OC(=O)Nc2ccc(Cl)c(F)c23)cnn1-c1ccccc1C1CC1` [Example 95, (R)-1'-(5-Amino-1-(2-cyclopropylphenyl)-1H-pyrazole-4-carbonyl)-6-chloro-5-fluorospiro[benzo[d][1,3]oxazine-4,3'-piperidin]-2(1H)-one], the IC50 at human factor XIa came to 305 nM; at Human plasma kallikrein, 10 nM.

`Nc1c(C(=O)N2CCC[C@@]3(C2)OC(=O)Nc2ccc(Cl)c(F)c23)cnn1-c1ccccc1Oc1ccccc1` [Example 96, (R)-1'-(5-Amino-1-(2-phenoxyphenyl)-1H-pyrazole-4-carbonyl)-6-chloro-5-fluorospiro[benzo[d][1,3]oxazine-4,3'-piperidin]-2(1H)-one]: the IC50 at human factor XIa was determined as 1370 nM; at Human plasma kallikrein it was 1.1 nM.

With `Nc1c(C(=O)N2CCC[C@@]3(C2)OC(=O)Nc2ccc(Cl)c(F)c23)cnn1-c1c(F)cccc1F` [Example 93, (R)-1'-(5-Amino-1-(2,6-difluorophenyl)-1H-pyrazole-4-carbonyl)-6-chloro-5-fluorospiro[benzo[d][1,3]oxazine-4,3'-piperidin]-2(1H)-one], the IC50 on human factor XIa stood at 418 nM; on Human plasma kallikrein, 10.4 nM.
